Read-outs that look alike come from different tables or passages of the source.
Tests used:
[1] = system: E. multilocularis metacestodes; test: PGI-assay: drug-induced damage on in vitro cultured metacestodes (Pathogen Box screening cascade and EC50); format: cell-based, Echinococcus multilocularis; details: for activity in the screen at 10 μM (confirmed in triplicates, >20% relative PGI release): 5 and 12 days; for cytotoxicity at 10 µM / PGI release, % of Tx-100 control at 10 µM: Echinococcus multilocularis
[2] = system: E. multilocularis metacestodes; details: cited from earlier work
[3] = 120 h, 10 µM, singlets, 5 days of incubation, read-out: PGI release, % of the Tx-100 control, 5d
[4] = 288 h, 10 µM, singlets, 12 days of incubation, read-out: PGI release, % of the Tx-100 control, 12d
[5] = 10 µM, singlets, 5 days of incubation
[6] = 10 µM, singlets, 12 days of incubation

Row | Structure (SMILES) | PGI release, % of the Tx-100 control, 5d [1, 5] | PGI release, % of the Tx-100 control, 12d [1, 6] | further results
1 | OC(c1cc(C(F)(F)F)nc2c(C(F)(F)F)cccc12)C1CCCCN1 (stereo not shown) [MMV000016, Mefloquine, reference compound] | – | – | PGI release, % of Tx-100 control, average, 5d ([1]; 1 µM, triplicates, 5 days of incubation): 0.24%; PGI release, % of Tx-100 control, average, 12d ([1]; 1 µM, triplicates, 12 days of incubation): 8.91%; activity in the screen at 10 μM (confirmed in triplicates, >20% relative PGI release) [1]: active; activity in the screen at 10 μM (confirmed in triplicates, >20% relative PGI release) ([1]; listed as Mefloquine): identified in our screening; cytotoxicity at 10 µM [1, 3]: 16.9%; PGI release, % of Tx-100 control at 10 µM ([1]; 120 h, confirmatory screening at 10 µM in triplicates, 5 days of incubation, values as % of Tx-100 control, read-out: PGI release, % of Tx-100 control, average, 5d): 7.4%; cytotoxicity at 10 µM [1, 4]: 23.3%; PGI release, % of Tx-100 control at 10 µM ([1]; 288 h, confirmatory screening at 10 µM in triplicates, 12 days of incubation, values as % of Tx-100 control, read-out: PGI release, % of Tx-100 control, average, 12d): 47.4%; IC50 ([2]; ref Stadelmann et al., 2011, Küster et al., 2011, 2015, Rufener et al., 2018, read-out: IC50 value against this parasite in vitro): > 30 µM
2 | COC(=O)Nc1nc2ccc(C(=O)c3ccccc3)cc2[nH]1 [MMV003152, Mebendazole, reference compound] | – | – | cytotoxicity at 10 µM [1, 3]: 1.28%; cytotoxicity at 10 µM [1, 4]: 11.9%; concentration inhibiting parasite proliferation ([2]; three weeks treatment, ref Jura et al., 1998): 1 µM
3 | CCOc1ccc2cc(-c3nn(C(C)(C)C)c(N)c3C(N)=O)cnc2c1 [MMV688853] | -1.41% | -6.45% | –
4 | CCOc1ccc2cc(-c3nn(CC4CCN(C)CC4)c4ncnc(N)c34)ccc2c1 [MMV688854] | -0.71% | 0.93% | –
5 | CN1CCN(c2cc(-c3ccc(F)cc3)nc(-c3ccncc3)n2)CC1 [MMV688888] | -2.22% | 0.59% | –
6 | Clc1ccc(CCNc2cc(-c3ccccc3)nc3ncnn23)cc1 [MMV688889] | -3.56% | -0.70% | –
7 | COc1cc(Br)cc2cc(C(=O)Nc3cccc(C(F)(F)F)c3)c(=O)oc12 [MMV688891] | -4.56% | -1.74% | –
8 | OC[C@H]1O[C@@H](n2c3ccc(Cl)cc3c3c(-c4cc5ccccc5o4)ncnc32)C(O)[C@H]1O (stereo partly shown) [MMV688921] | -1.03% | 0.48% | –
9 | CCc1nn(C)c(C(=O)NCc2ccc(Oc3ccc(C)cc3)cc2)c1Cl [MMV688934, Tolfenpyrad] | – | – | cytotoxicity at 10 µM ([1]; 120 h, read-out: PGI release, % of the Tx-100 control, 5d): -1.16%; cytotoxicity at 10 µM ([1]; 288 h, read-out: PGI release, % of the Tx-100 control, 12d): 10.3%
10 | O=C(c1ccco1)N(CCCn1ccnc1)c1nc2c(Cl)cccc2s1 [MMV688936] | -2.60% | 13.45% | –
11 | CCOc1ccc(-c2nc(CNCCc3ccc(F)cc3)cs2)cc1 [MMV688938] | 2.65% | 3.55% | –
12 | Cc1ccc2nc(C)c(-c3ccn(Cc4ccccc4)n3)n2c1 [MMV688939] | 15.20% | 102.25% | PGI release, % of Tx-100 control, average, 5d ([1]; confirmatory screening at 10 µM in triplicates, 5 days of incubation, values as % of Tx-100 control): 3.21%; PGI release, % of Tx-100 control, average, 12d ([1]; confirmatory screening at 10 µM in triplicates, 12 days of incubation, values as % of Tx-100 control): 3.18%
13 | COc1cc(CN2CCC3(C=Cc4ccccc43)CC2)cc2c1OCO2 [MMV688941] | -0.50% | -0.49% | –
14 | CC(C)(C)C(O)C(Oc1ccc(-c2ccccc2)cc1)n1cncn1 (stereo not shown) [MMV688942, Bitertanol] | – | – | cytotoxicity at 10 µM [1, 3]: -0.93%; cytotoxicity at 10 µM [1, 4]: 0.41%
15 | CC1COC(Cn2cncn2)(c2ccc(Oc3ccc(Cl)cc3)cc2Cl)O1 (stereo not shown) [MMV688943, Difenoconazol] | -4.96% | -0.86% | –
16 | Cc1cc(NC(=O)c2ccc(Oc3ccc(Cl)cc3O)o2)no1 [MMV688955] | -0.20% | -3.41% | –
17 | CCc1cc(=O)n(C)c(SC(C)C(=O)Nc2ccc(F)cc2)n1 (stereo not shown) [MMV688980] | -0.26% | 0.88% | –
18 | [H]/N=C(/N)N[C@H]1[C@H](O)[C@@H](O)[C@H](O[C@@H]2O[C@@H](C)[C@](O)(C=O)[C@H]2O[C@@H]2O[C@@H](CO)[C@H](O)[C@@H](O)[C@@H]2NC)[C@@H](N/C(N)=N\[H])[C@@H]1O [MMV688994, Streptomycin, reference compound] | – | – | cytotoxicity at 10 µM [1, 3]: -0.55%; cytotoxicity at 10 µM [1, 4]: 0.19%
19 | Cc1ccc(S(=O)(=O)Nc2ccc(CN3CCN(C(=O)c4cccc(C#N)c4)CC3)cc2)cc1 [MMV689028] | 0.59% | -0.96% | –
20 | COc1ccc(S(=O)(=O)Nc2ccc(CN3CCN(C(=O)c4cccc(C#N)c4)CC3)cc2)cc1 [MMV689029] | 2.51% | -2.23% | –
21 | Clc1ccc(CN2CCN(C3=NCCN3)CC2)cc1Cl [MMV689060] | 0.33% | -1.23% | –
